Experimental data published in patent publication US20180246095A1, “COMPOSITIONS AND METHODS FOR DIAGNOSING AND TREATING LYME DISEASE” (priority 2015, published 2018).

Tested on: B. burgdorferi B31
Experiment: RNA-Seq gene expression profile of B. burgdorferi persisters that survived antibiotic treatment, compared with drug free control
Format: cell-based, Borrelia burgdorferi
Procedure: RNA Sequencing (RNA-Seq) was performed to determine the gene expression profile of B. burgdorferi persisters that survived antibiotic treatment using next generation sequencing to shed light on the mechanisms of B. burgdorferi persistence. B. burgdorferi B31 cultures were grown for 5 days to 1×10^7 spirochetes/ml in BSK-H medium followed by treatment with 50 μg/ml doxycycline or 50 μg/ml amoxicillin for 6 days. Triplicate biological samples were used for each group. The total RNA was extracted and ribosomal RNA was removed prior to preparation of cDNA libraries for Illumina sequencing. […] The RNA-Seq data was analyzed by BLAST analysis and mapped to KEGG pathways.

CC1(C)S[C@@H]2[C@H](NC(=O)[C@H](N)c3ccc(O)cc3)C(=O)N2[C@H]1C(=O)O [Amo]
Expression predicted RNA antisense: BB_0034: 64256
Expression predicted RNA antisense: BB_0147: 71642
Expression predicted RNA antisense: BB_0269: 39823
Expression predicted RNA antisense: BB_0465: 29768
Expression predicted RNA antisense: BB_0559: 39487
Expression predicted RNA antisense: BB_0631: 35398
Expression predicted RNA antisense: BB_A59: 70553
Expression predicted RNA antisense: BB_B22: 44966
Expression predicted RNA antisense: fusA: 45574
Expression predicted RNA antisense: lp6.6: 140114
Expression predicted RNA antisense: napA: 19231
Expression predicted RNA antisense: ospA ospB: 102443
Expression predicted RNA antisense: rpsM: 33897
Expression predicted RNA antisense: tRNA-Gln-1 BB_0786: 25214
Expression 5S_rrlB BB_r03 (5S ribosomal RNA): 0
Expression lp6.6 BB_A62 (6.6 kDa lipoprotein): 115
Expression 23S_rrlA BB_r02 (23S ribosomal RNA): 3005
Expression 23S_rrlB BB_r04 (23S ribosomal RNA): 3039
Expression rpsH BB_0492 (30S ribosomal protein S8): 14
Expression rpsI BB_0338 (30S ribosomal protein S9): 66
Expression rpsQ BB_0487 (30S ribosomal protein S17): 2
Expression rpsU BB_0256 (30S ribosomal protein S21): 34
Expression rplI BB_0112 (50S ribosomal protein L9): 23
Expression rplM BB_0339 (50S ribosomal protein L13): 21
Expression rplQ BB_0503 (50S ribosomal protein L17): 17
Expression rplX BB_0489 (50S ribosomal protein L24): 6
Expression rpmC BB_0486 (50S ribosomal protein L29): 0
Expression rpmE BB_0229 (50S ribosomal protein L31): 52
Expression rpmF BB_0703 (50S ribosomal protein L32): 28
Expression rpmJ BB_0499 (50S ribosomal protein L36): 14
Expression tRNA-Ala-1 BB_t05 (Ala tRNA): 0
Expression BB_t21 (Arg tRNA): 0
Expression tRNA-Asn-1 BB_t11 (Asn tRNA): 26
Expression tRNA-Asp-1 BB_t12 (Asp tRNA): 0
Expression bdrH BB_R27 (BdrH): 15
Expression bdrK BB_M34 (BdrK): 0
Expression bdrR BB_N27 (BdrR protein): 0
Expression erpK BB_M38 (ErpK protein): 0
Expression thyX BB_A76 (FAD-dependent thymidylate synthase): 3
Expression tRNA-Gln-1 BB_t18 (Gln tRNA): 0
Expression BB_t25 (Gly tRNA): 1187
Expression BB_0087 (L-lactate dehydrogenase): 48
Expression tRNA-Leu-4 BB_t17 (Leu tRNA): 15
Expression BB_t23 (Lys tRNA): 0
Expression BB_0262 (M23 peptidase domain-containing protein): 145
Expression BB_t28 (Met tRNA): 0
Expression BB_A64 (P35 antigen): 9453
Expression BB_P32 (PF-32 protein): 15
Expression BB_M33 (PF-49 protein): 0
Expression BB_P33 (PF-49 protein): 0
Expression BB_0559 (PTS system glucose-specific transporter subunit IIA): 177
Expression BB_t30 (Phe tRNA): 0
Expression BB_F03 (RepU): 0
Expression BB_t20 (Ser tRNA): 7
Expression tRNA-Ser-3 BB_t06 (Ser tRNA): 0
Expression smpB BB_0033 (SsrA-binding protein): 176
Expression BB_t33 (Thr tRNA): 11
Expression murB BB_0598 (UDP-N-acetylenolpyruvoylglucosamine reductase): 249
Expression BB_0090 (V-type ATP synthase subunit K): 1
Expression BB_H33 (adenine deaminase): 2
Expression BB_H32 (antigen P35): 5
Expression lnt BB_0237 (apolipoprotein N-acyltransferase): 2060
Expression BB_0582 (carboxypeptidase): 96
Expression cheR BB_0040 (chemotaxis protein methyltransferase): 233
Expression BB_H06 (complement regulator-acquiring surface protein): 10
Expression cdd BB_0618 (cytidine deaminase): 267
Expression flgB BB_0294 (flagellar basal body rod protein FlgB): 5
Expression fliL BB_0279 (flagellar basal body-associated protein FliL): 6
Expression BB_0287 (flagellar protein FlbA): 0
Expression BB_0147 (flagellin): 73
Expression BB_0138 (gene BB_0138, hypothetical protein): 0
Expression BB_0305 (gene BB_0305, hypothetical protein): 0
Expression BB_0321 (gene BB_0321, hypothetical protein): 4
Expression BB_A21 (gene BB_A21, PF-49 protein): 1
Expression BB_E09 (gene BB_E09, protein p23): 0
Expression BB_E16 (gene BB_E16, hypothetical protein): 0
Expression BB_E17 (gene BB_E17, hypothetical protein): 0
Expression BB_E18 (gene BB_E18, hypothetical protein): 0
Expression BB_E19 (gene BB_E19, hypothetical protein): 0
Expression BB_E20 (gene BB_E20, hypothetical protein): 0
Expression BB_E21 (gene BB_E21, hypothetical protein): 0
Expression BB_E22 (gene BB_E22, pyrazinamidase/nicotinamidase PncA): 0
Expression BB_E31 (gene BB_E31, antigen, P35, putative): 0
Expression BB_F01 (gene BB_F01, hypothetical protein): 0
Expression BB_F02 (gene BB_F02, hypothetical protein): 0
Expression BB_F06 (gene BB_F06, hypothetical protein): 0
Expression BB_F08 (gene BB_F08, hypothetical protein): 0
Expression BB_F14 (gene BB_F14, hypothetical protein): 0
Expression BB_F17 (gene BB_F17, putative transmembrane protein): 0
Expression BB_F20 (gene BB_F20, BBF20): 0
Expression BB_F23 (gene BB_F23, PF49): 0
Expression BB_F24 (gene BB_F24, PF32): 0
Expression BB_F25 (gene BB_F25, hypothetical protein): 0
Expression BB_F26 (gene BB_F26, hypothetical protein): 0
Expression BB_F0034 (gene BB_F0034, hypothetical protein): 0
Expression BB_F0039 (gene BB_F0039, hypothetical protein): 0
Expression BB_F0040 (gene BB_F0040, hypothetical protein): 0
Expression BB_F0041 (gene BB_F0041, outer surface protein VlsE1): 0
Expression BB_I01 (gene BB_I01, hypothetical protein): 0
Expression BB_I02 (gene BB_I02, hypothetical protein): 0
Expression BB_I06 (gene BB_I06, MTA/SAH nucleosidase): 0
Expression BB_I12 (gene BB_I12, hypothetical protein): 0
Expression BB_I15 (gene BB_I15, virulence associated lipoprotein): 0
Expression BB_I18 (gene BB_I18, hypothetical protein): 0
Expression BB_I19 (gene BB_I19, hypothetical protein): 0
Expression BB_I20 (gene BB_I20, hypothetical protein): 0
Expression BB_I21 (gene BB_I21, PF-32 protein): 0
Expression BB_I22 (gene BB_I22, PF-49 protein): 0
Expression BB_I26 (gene BB_I26, multidrug-efflux transporter): 0
Expression BB_I29 (gene BB_I29, virulence associated lipoprotein): 0
Expression BB_I34 (gene BB_I34, virulence associated lipoprotein): 0
Expression BB_I36 (gene BB_I36, antigen P35): 0
Expression BB_I38 (gene BB_I38, surface antigen): 0
Expression BB_I41 (gene BB_I41, hypothetical protein): 0
Expression BB_I42 (gene BB_I42, outer membrane protein): 0
Expression BB_J42 (gene BB_J42, hypothetical protein): 0
Expression BB_J0058 (gene BB_J0058, hypothetical protein): 0
Expression BB_K01 (gene BB_K01, lipoprotein): 0
Expression BB_K07 (gene BB_K07, lipoprotein): 0
Expression BB_K09 (gene BB_K09, hypothetical protein): 0
Expression BB_K13 (gene BB_K13, hypothetical protein): 0
Expression BB_K15 (gene BB_K15, antigen P35): 0
Expression BB_K17 (gene BB_K17, adenine deaminase): 0
Expression BB_K19 (gene BB_K19, lipoprotein): 0
Expression BB_K21 (gene BB_K21, PF-32 protein): 0
Expression BB_K22 (gene BB_K22, hypothetical protein): 0
Expression BB_K23 (gene BB_K23, hypothetical protein): 0
Expression BB_K24 (gene BB_K24, PF-49 protein): 0
Expression BB_K32 (gene BB_K32, fibronectin-binding protein): 0
Expression BB_K33 (gene BB_K33, hypothetical protein): 0
Expression BB_K34 (gene BB_K34, hypothetical protein): 0
Expression BB_K35 (gene BB_K35, hypothetical protein): 0
Expression BB_K40 (gene BB_K40, hypothetical protein): 0
Expression BB_K41 (gene BB_K41, hypothetical protein): 0
Expression BB_K42 (gene BB_K42, hypothetical protein): 0
Expression BB_K45 (gene BB_K45, immunogenic protein P37): 0
Expression BB_K47 (gene BB_K47, hypothetical protein): 0
Expression BB_K48 (gene BB_K48, immunogenic protein P37): 0
Expression BB_K49 (gene BB_K49, hypothetical protein): 0
Expression BB_K50 (gene BB_K50, immunogenic protein P37): 0
Expression BB_K52 (gene BB_K52, lipoprotein): 0
Expression BB_K53 (gene BB_K53, outer membrane protein): 0
Expression BB_K54 (gene BB_K54, hypothetical protein): 0
Expression BB_K0058 (gene BB_K0058, hypothetical protein): 0
Expression BB_K0059 (gene BB_K0059, hypothetical protein): 0
Expression BB_L15 (gene BB_L15, hypothetical protein): 0
Expression BB_L16 (gene BB_L16, hypothetical protein): 0
Expression BB_L17 (gene BB_L17, hypothetical protein): 0
Expression BB_L18 (gene BB_L18, hypothetical protein): 0
Expression BB_L21 (gene BB_L21, hypothetical protein): 0
Expression BB_L22 (gene BB_L22, hypothetical protein): 0
Expression BB_L29 (gene BB_L29, hypothetical protein): 0
Expression BB_L30 (gene BB_L30, hypothetical protein): 1
Expression BB_L31 (gene BB_L31, hypothetical protein): 0
Expression BB_L32 (gene BB_L32, PF-32 protein): 0
Expression BB_N08 (gene BB_N08, hypothetical protein): 0
Expression BB_N33 (gene BB_N33, PF-49 protein): 1
Expression BB_Q03 (gene BB_Q03, outer membrane protein): 0
Expression BB_Q05 (gene BB_Q05, antigen, P35): 0
Expression BB_Q07 (gene BB_Q07, plasmid partition protein): 0
Expression BB_Q08 (gene BB_Q08, PF-32 protein): 0
Expression BB_Q09 (gene BB_Q09, hypothetical protein): 0
Expression BB_Q40 (gene BB_Q40, PF-32 protein): 0
Expression BB_Q48 (gene BB_Q48, hypothetical protein): 0
Expression BB_Q49 (gene BB_Q49, hypothetical protein): 0
Expression BB_Q67 (gene BB_Q67, adenine specific DNA methyltransferase): 0
Expression BB_Q89 (gene BB_Q89, lipoprotein): 5
Expression BB_T01 (gene BB_T01, hypothetical protein): 0
Expression BB_T02 (gene BB_T02, hypothetical protein): 0
Expression BB_T03 (gene BB_T03, hypothetical protein): 0
Expression BB_T04 (gene BB_T04, hypothetical protein): 0
Expression BB_T06 (gene BB_T06, Sua5/YciO/YrdC/YwlC family protein): 0
Expression BB_T07 (gene BB_T07, outer membrane protein): 0
Expression BB_U01 (gene BB_U01, hypothetical protein): 0
Expression BB_U02 (gene BB_U02, hypothetical protein): 2
Expression BB_U04 (gene BB_U04, protein BBC01): 0
